Source: US9963445B2, “Chemical compounds” (SYNGENTA PARTICIPATIONS AG, priority 2013, dated 2018)

Legend:
Format in all cases: in vivo
Setaria faberi [1] = experiment: Post-emergence herbicidal activity, glasshouse pot test; design: key: 0 = no damage to plant, 5 = total damage to plant; conditions: Application post-emergence, rate 1000 g/ha, evaluated after 13 days
In short: (§1)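 Pot-grown seedlings, sown in standard soil, were sprayed 8 days after sowing and kept in a controlled glasshouse (24/16 °C, 14 h photoperiod, 65% humidity). Injury was assessed visually 13 days later on a scale where 5 means total damage.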

Amaranthus retroflexus [2] = experiment: as above; design: key: 0 = no damage to plant, 5 = total damage to plant; conditions: Application post-emergence, rate 1000 g/ha, evaluated after 13 days
In short: as §1

Alopecurus myosuroides [3] = experiment: as above; design: key: 0 = no damage to plant, 5 = total damage to plant; conditions: Application post-emergence, rate 1000 g/ha, evaluated after 13 days
In short: as §1

zea mays [4] = experiment: as above; design: key: 0 = no damage to plant, 5 = total damage to plant; conditions: Application post-emergence, rate 1000 g/ha, evaluated after 13 days
In short: as §1

Echinochloa crus-galli [5] = experiment: as above; design: key: 0 = no damage to plant, 5 = total damage to plant; conditions: Application post-emergence, rate 1000 g/ha, evaluated after 13 days
In short: as §1

Abutilon theophrasti [6] = experiment: as above; design: key: 0 = no damage to plant, 5 = total damage to plant; conditions: Application post-emergence, rate 1000 g/ha, evaluated after 13 days
In short: as §1

Setaria faberi [7] = experiment: Pre-emergence herbicidal activity, glasshouse pot test; conditions: pre-emergence spray, rate 1000 g/ha, evaluated after 13 days, scale 0-5
In short: (§2)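 Test species were sown in pots and, after one day under controlled glasshouse conditions, treated with an aqueous spray of the active ingredient in acetone/water containing 0.5% Tween 20. Evaluation followed 13 days later, scoring plant damage from 0 (none) to 5 (total).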

Amaranthus retroflexus [8] = experiment: as above; conditions: pre-emergence spray, rate 1000 g/ha, evaluated after 13 days, scale 0-5
In short: as §2

Alopecurus myosuroides [9] = experiment: as above; conditions: pre-emergence spray, rate 1000 g/ha, evaluated after 13 days, scale 0-5
In short: as §2

zea mays [10] = experiment: as above; conditions: pre-emergence spray, rate 1000 g/ha, evaluated after 13 days, scale 0-5
In short: as §2

Echinochloa crus-galli [11] = experiment: as above; conditions: pre-emergence spray, rate 1000 g/ha, evaluated after 13 days, scale 0-5
In short: as §2

Abutilon theophrasti [12] = experiment: as above; conditions: pre-emergence spray, rate 1000 g/ha, evaluated after 13 days, scale 0-5
In short: as §2

| Compound | SETFA herbicidal damage score (Setaria faberi [1]) | AMARE herbicidal damage score (Amaranthus retroflexus [2]) | ALOMY herbicidal damage score (Alopecurus myosuroides [3]) | ZEAMX herbicidal damage score (zea mays [4]) | ECHCG herbicidal damage score (Echinochloa crus-galli [5]) | ABUTH herbicidal damage score (Abutilon theophrasti [6]) | SETFA damage score, application pre-emergence (Setaria faberi [7]) | AMARE damage score, application pre-emergence (Amaranthus retroflexus [8]) | ALOMY damage score, application pre-emergence (Alopecurus myosuroides [9]) | ZEAMX damage score, application pre-emergence (zea mays [10]) | ECHCG damage score, application pre-emergence (Echinochloa crus-galli [11]) | ABUTH damage score, application pre-emergence (Abutilon theophrasti [12]) |
| --- | --- | --- | --- | --- | --- | --- | --- | --- | --- | --- | --- | --- |
| C/C=C/c1cc(N2C(=O)C(Cl)=C(C)C2O)ncn1 (stereo not drawn) [CF6] | 4 | 2 | 3 | 0 | 4 | 4 | 2 | 2 | 2 | 0 | 3 | 0 |
| CC1=C(Cl)C(=O)N(c2nccc(C(C)(C)C)n2)C1O (stereo not drawn) [DF2] | 5 | 5 | 5 | 1 | 5 | 5 | 5 | 5 | 4 | 2 | 5 | 5 |
| COC1=C(C)C(O)N(c2cc3c(nn2)CCCC3)C1=O (stereo not drawn) [BI3] | 5 | 3 | 3 | 1 | 3 | 2 | 0 | 2 | 1 | 0 | 4 | 0 |
| CC1=C(Cl)C(=O)N(c2cc(F)ccn2)C1O (stereo not drawn) [AF39] | 4 | 5 | 4 | 2 | 5 | 5 | 3 | 4 | 3 | 1 | 4 | 4 |
| CC1=C(Br)C(=O)N(c2cc(C(F)(F)F)ccn2)C1O (stereo not drawn) [AG1] | 5 | 5 | 4 | 2 | 5 | 5 | 3 | 5 | 2 | 0 | 2 | 5 |
| CC1=C(Cl)C(=O)N(c2cc(C(C)(C)F)c(Cl)nn2)C1O (stereo not drawn) [BF11] | 3 | 2 | 2 | 1 | 3 | 2 | 0 | 0 | 0 | 0 | 0 | 0 |
| 4-chloro-2-hydroxy-3-methyl-1-[4-(trifluoromethyl)-5-vinyl-2-pyridyl]-2H-pyrrol-5-one [AF18] | 5 | 5 | 5 | 2 | 5 | 5 | 4 | 5 | 4 | 2 | 5 | 5 |
| COC1=C(C)C(O)N(c2cc(C(C)(C)C)c(-c3ccc(F)nc3)nn2)C1=O (stereo not drawn) [BI30] | 5 | 5 | 5 | 4 | 5 | 5 | 5 | 5 | 4 | 4 | 5 | 5 |
| COC1=C(C)C(O)N(c2cc(C(C)F)c(Cl)nn2)C1=O (stereo not drawn) [BI10] | 5 | 5 | 4 | 3 | 5 | 5 | 2 | 5 | 3 | 2 | 4 | 5 |
| C#CC(C)(C)NC(=O)c1ccc(N2C(=O)C(OC)=C(C)C2O)nn1 (stereo not drawn) [BI27] | 5 | 5 | 4 | 4 | 5 | 5 | 4 | 5 | 2 | 1 | 4 | 4 |
